Experimental data reported in patent publication US10030016B2 (Sunesis Pharmaceuticals, Inc., priority 2009, dated 2018).
Structures can show the parent of a compound that is named as a salt. Where two headings read alike, the source gives them in different places.

Tests used:
PDK1 = PDK1 (Homo sapiens (Human), UniProt O15530); assay: PDK1 kinase assay (coupled PDK1/AKT/FAM-crosstide assay, IMAP fluorescence polarization); assay type: biochemical
Method in brief: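 GST-tagged human PDK1 (aa 51-359, 0.75 nM) from insect cells activated unphosphorylated GST-AKT2 (aa 140-467–PIFtide fusion, 10 nM), which phosphorylated 100 nM FAM-crosstide; 40 μM ATP, pH 7.2 Tris/MgCl2, 30 min at 25° C. IMAP fluorescence polarization read-out; ΔmP versus compound concentration fitted with a 4-parameter curve.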

[1] = system: phospho-akt (Thr308) in PC-3 cells; assay: Inhibition of phospho-akt (Thr308) in PC-3 cells, MSD phospho-akt 308 ELISA kit; assay type: cell-based; conditions: Homo sapiens, 2 hours, no serum, read-out: EC50
Method in brief: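 PC-3 cells (15,000/well, overnight in 10% FBS medium) treated 2 h with three-fold diluted compounds in serum-free medium; DMSO high and 5 μM wortmannin low controls. Lysates captured on BSA-blocked MSD plates overnight at 4 °C, then 1 h antibody detection at RT; phospho-Akt Thr308 read by MSD electrochemiluminescence.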

[2] = inhibition of P308 Akt in PC-3 cells using MSD
[3] = inhibition of phospo-PDK1 in vitro
[4] = inhibition of P308 Akt in PC-3 cells, MSD

PDK1, sequence (O15530 51-359): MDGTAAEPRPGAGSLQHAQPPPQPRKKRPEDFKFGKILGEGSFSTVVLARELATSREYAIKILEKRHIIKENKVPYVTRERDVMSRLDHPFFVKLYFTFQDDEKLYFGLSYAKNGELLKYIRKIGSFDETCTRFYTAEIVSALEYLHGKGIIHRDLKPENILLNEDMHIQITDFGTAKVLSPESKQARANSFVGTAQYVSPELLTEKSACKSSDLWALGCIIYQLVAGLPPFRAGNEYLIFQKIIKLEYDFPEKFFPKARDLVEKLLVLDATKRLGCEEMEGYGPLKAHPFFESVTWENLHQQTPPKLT

| SMILES | IC50 (PDK1; inhibition of PDK1 in vitro) | EC50 [1, 2] | IC50 (PDK1; [3]) | EC50 [1, 4] | further results |
| --- | --- | --- | --- | --- | --- |
| C[C@H](NC(=O)c1cc(C#N)cnc1NCc1ccc(-c2cnc(N)cn2)cc1)c1ccc(F)cc1 [Example 120, (S)-2-(4-(5-amino-pyrazin-2-yl)benzylamino)-5-cyano-N-(1-(4-fluorophenyl)ethyl) nicotinamide] | < 100 nM | < 1000 nM |  |  |  |
| O=C(NCc1ccc(F)c(F)c1)c1cccnc1NCc1ccc(-c2c[nH]c3ncncc23)s1 [Example 4.7, 2-(((5-(7H-pyrrolo[2,3-d]pyrimidin-5-yl)thiophen-2-yl)methyl)amino)-N-(3,4-difluorobenzyl)nicotinamide] |  |  | 100 to 1000 nM | 1000 to 10000 nM |  |
| CC(C)[C@H](NC(=O)c1cccnc1NCc1ccc(-c2ccc3ncnc(N)c3c2)s1)c1ccc(F)cc1 [Example 3.45, (S)-2-((5-(4-aminoquinazolin-6-yl)thiophen-2-yl)methylamino)-N-(1-(4-fluorophenyl)-2-methylpropyl)nicotinamide (TFA salt)] |  |  | 100 to 1000 nM | 1000 to 10000 nM |  |
| C[C@H](NC(=O)c1cc(C#N)cnc1NCc1ccc(-c2ccc(NCCN(C)C)nc2)cc1)c1ccc(F)cc1 [Example 224, 5-Cyano-2-{4-[6-(2-dimethylamino-ethylamino)-pyridin-3-yl]-benzylamino}-N-[(S)-1-(4-fluoro-phenyl)-ethyl]-nicotinamide] | > 5000 nM | > 10000 nM |  |  |  |
| C[C@H](NC(=O)c1nc(C#N)cnc1NCc1ccc(-c2cnc(N)cn2)cc1)c1ccc(F)c(F)c1 [Example 376, (S)-3-(4-(5-aminopyrazin-2-yl)benzylamino)-6-cyano-N-(1-(3,4-difluorophenyl)ethyl)pyrazine-2-carboxamide] | < 100 nM | < 1000 nM |  |  |  |
| Nc1ncnc2ccc(-c3ccc(CNc4ncccc4C(=O)Nc4ccc(F)c(F)c4)s3)cc12 [Example 3.24, 2-({[5-(4-aminoquinazolin-6-yl)thiophen-2-yl]methyl}amino)-N-(3,4-difluorophenyl)pyridine-3-carboxamide (TFA salt)] |  |  | 100 to 1000 nM | 1000 to 10000 nM |  |
| C[C@H](NC(=O)c1cc(C#N)cnc1NCc1ccc(-c2ccc(N)nc2)c(F)c1)c1ccc(F)cc1 [Example 129, (S)-2-(4-(6-aminopyridin-3-yl)-3-fluorobenzylamino)-5-cyano-N-(1-(4-fluorophenyl)ethyl) nicotinamide] | 100 to 1000 nM | 1000 to 10000 nM |  |  |  |
| Nc1cnc(-c2ccc(CNc3nccc4ncn(Cc5ccc(F)c(F)c5)c(=O)c34)cc2)cn1 [Example 381, 5-(4-(5-aminopyrazin-2-yl)benzylamino)-3-(3,4-difluorobenzyl)pyrido[4,3-d] pyrimidin-4(3H)-one] | < 100 nM | 1000 to 10000 nM |  |  |  |
| CC(C)Oc1cc(CNc2ncccc2C(=O)NCc2ccc(F)c(F)c2)cc(-c2ccc3ncncc3c2)c1 [Example 5.3, N-(3,4-difluorobenzyl)-2-(3-isopropoxy-5-(quinazolin-6-yl)benzylamino) nicotinamide] |  |  | 100 to 1000 nM | > 10000 nM |  |
| C[C@H](NC(=O)c1cc(C#N)cnc1NCc1ccc(-c2ccc(C(N)=O)nc2)cc1)c1ccc(F)cc1 [Example 114, (S)-5-(4-((5-cyano-3-(1-(4-fluorophenyl)ethylcarbamoyl)pyridin-2-ylamino)methyl)phenyl)picolinamide] | 100 to 1000 nM |  |  |  | EC50 ([1]; PC-3, 2 h, inhibition of P308 Akt in PC-3 cells using MSD): > 10000 nM |
| C[C@H](NC(=O)c1cc(C#N)cnc1NCc1ccc(-c2cnc(N)c(N3CCC[C@H](N)C3)n2)cc1)c1ccc(F)cc1 [Example 197] | < 100 nM | < 1000 nM |  |  |  |
| C[C@H](NC(=O)c1cc(C#N)cnc1NCc1ccc(-c2ccc3n[nH]c(=O)n3c2)cc1)c1ccc(F)cc1 [Example 145, (S)-5-cyano-N-(1-(4-fluorophenyl)ethyl)-2-(4-(3-oxo-2,3-dihydro-[1,2,4]triazolo[4,3-a]pyridin-6-yl)benzyl-amino)nicotinamide] | > 5000 nM | > 10000 nM |  |  |  |
| C[C@H](NC(=O)c1cc(C#N)cnc1NCc1ccc(-c2cnc(N)c(CCCN(C)C)n2)cc1)c1ccc(F)cc1 [Example 158, (S)-2-(4-(5-amino-6-(3-(dimethylamino)propyl)pyrazin-2-yl)benzylamino)-5-cyano-N-(1-(4-fluorophenyl)ethyl) nicotinamide] | < 100 nM | < 1000 nM |  |  |  |
| CN(C)CCNC(=O)c1cnc(NCc2ccc(-c3ccc4ncnc(N)c4c3)s2)c(C(=O)NCc2ccc(F)c(F)c2)c1 [Example 7.24.2, 2-({[5-(4-aminoquinazolin-6-yl)thiophen-2-yl]methyl}amino)-N^3-(3,4-difluorobenzyl)-N^5-[2-(dimethylamino)ethyl] pyridine-3,5-dicarboxamide] |  |  | 100 to 1000 nM |  | EC50 ([1]; PC-3, 2 h, inhibition of P308 Akt in PC-3 cells, MSD): 1000 to 10000 nM |
| Nc1ncnc2ccc(-c3ccc(CNc4ncc(Cl)cc4C(=O)NCc4ccc(F)c(F)c4)s3)cc12 [Example 8.12.3, 2-({[5-(4-aminoquinazolin-6-yl)thiophen-2-yl]methyl}amino)-5-chloro-N-(3,4-difluorobenzyl)pyridine-3-carboxamide] |  |  | 1000 to 5000 nM | 1000 to 10000 nM |  |
| C[C@H](NC(=O)c1cc(C#N)cnc1NCc1ccc(-c2cnc(N)c(NCC(O)CO)n2)cc1)c1ccc(F)cc1 (stereo partly drawn) [Example 243, 2-{4-[5-Amino-6-(2,3-dihydroxy-propylamino)-pyrazin-2-yl]-benzylamino}-5-cyano-N-[(S)-1-(4-fluoro-phenyl)-ethyl]-nicotinamide] | < 100 nM | < 1000 nM |  |  |  |
| C[C@H](NC(=O)c1cccnc1NCc1ccc(-c2ccc3ncc4[nH]c(=O)n(C)c4c3c2)s1)c1ccc(F)cc1 [Example 2.16, (S)-N-(1-(4-fluorophenyl)ethyl)-2-(((5-(1-methyl-2-oxo-2,3-dihydro-1H-imidazo[4,5-c]quinolin-8-yl)thiophen-2-yl)methyl)amino) nicotinamide] |  |  | > 5000 nM | > 10000 nM |  |
| O=C(NCc1ccc(F)c(F)c1)c1cccnc1NCc1csc(-c2c[nH]c3ncccc23)n1 [Ex. 6.12, N-(3,4-difluorobenzyl)-2-({[2-(1H-pyrrolo[2,3-b]pyridin-3-yl)-1,3-thiazol-4-yl]-methyl}amino) pyridine-3-carboxamide] |  |  | < 100 nM | < 1000 nM |  |
| N#Cc1cccc(NC(=O)c2cc(C(F)(F)F)cnc2NCc2ccc(-c3cnc4[nH]nc(N)c4c3)cc2)c1 [Example 439, 2-(4-(3-amino-1H-pyrazolo[3,4-b]pyridin-5-yl)benzylamino)-N-(3-cyanophenyl)-5-(trifluoromethyl) nicotinamide] | < 100 nM | 1000 to 10000 nM |  |  |  |
| Nc1ncnc2ccc(-c3ccc(CNc4ncccc4C(=O)Nc4cccc(C(F)(F)F)c4)s3)cc12 [Example 3.53, 2-({[5-(4-aminoquinazolin-6-yl)thiophen-2-yl]methyl}amino)-N-[3-(trifluoromethyl)phenyl]pyridine-3-carboxamide (TFA salt)] |  |  | > 5000 nM | > 10000 nM |  |
| N#Cc1cnc(NCc2ccc(-c3cnc4[nH]c(=O)[nH]c4c3)cc2)c(C(=O)NCc2ccc(F)c(F)c2)c1 [Example 356, 5-cyano-N-(3,4-difluorobenzyl)-2-(4-(2-oxo-2,3-dihydro-1H-imidazo[4,5-b]pyridin-6-yl)benzylamino)nicotinamide] | < 100 nM | < 1000 nM |  |  |  |
| C[C@H](NC(=O)c1cc(I)cnc1NCc1ccc(-c2ccc3ncnc(N)c3c2)s1)c1ccc(F)c(F)c1 [Ex. 7.21.1, 2-({[5-(4-aminoquinazolin-6-yl)thiophen-2-yl]methyl}amino)-N-[(1S)-1-(3,4-difluorophenyl)ethyl]-5-iodopyridine-3-carboxamide] |  |  | 100 to 1000 nM | < 1000 nM |  |
| C[C@H](NC(=O)c1cc(C#N)cnc1NCc1cnc(-c2cnc3[nH]ncc3c2)s1)c1ccc(F)cc1 [Example 67, 5-Cyano-N-[(S)-1-(4-fluoro-phenyl)-ethyl]-2-{[2-(1H-pyrazolo[3,4-b]pyridin-5-yl)-thiazol-5-ylmethyl]-amino}-nicotinamide] | < 100 nM | 1000 to 10000 nM |  |  |  |
| C[C@H](NC(=O)c1cccnc1NCc1ccc(-c2ccc3ncc(-n4ccnc4)nc3c2)s1)c1ccc(F)c(F)c1 [Example 4.29, (S)-2-(((5-(3-(1H-imidazol-1-yl)quinoxalin-6-yl)thiophen-2-yl)methyl)amino)-N-(1-(3,4-difluorophenyl)ethyl) nicotinamide] |  |  | > 5000 nM | > 10000 nM |  |
| N#Cc1cnc(NCc2ccc(-c3ccc(N)nc3)cc2)c(C(=O)NCc2ccc(F)c(F)c2)c1 [Example 368, 2-(4-(6-aminopyridin-3-yl)benzylamino)-5-cyano-N-(3,4-difluorobenzyl) nicotinamide] | < 100 nM | < 1000 nM |  |  |  |
| C[C@H](NC(=O)c1nc(C#N)cnc1NCc1ccc(-c2cn(C)c3ncnc(N)c23)cc1)c1ccc(F)c(F)c1 [Example 27, (S)-3-(4-(4-amino-7-methyl-7H-pyrrolo[2,3-d]pyrimidin-5-yl)benzylamino)-6-cyano-N-(1-(3,4-difluorophenyl)ethyl)pyrazine-2-carboxamide] |  |  | < 100 nM | < 1000 nM |  |
| CC[C@H](NC(=O)c1cccnc1NCc1ccc(-c2ccc3ncnc(N)c3c2)s1)c1cccc(F)c1 [Example 3.42, (S)-2-((5-(4-aminoquinazolin-6-yl)thiophen-2-yl)methylamino)-N-(1-(3-fluorophenyl)propyl) nicotinamide (TFA salt)] |  |  | 100 to 1000 nM | > 10000 nM |  |
